This note sets out measurements from PubChem BioAssay AID248 (DTP/NCI, 2004).

This assay concerns L1210 leukemia ip in BDF1 mice, survival T/C. The experiment in a line: NCI In Vivo Anticancer Drug Screen. Data for tumor model L1210 Leukemia (intraperitoneal) in B6D2F1 (BDF1) mice. Particulars: endpoint: mean survival time, higher = longer survival. An outline of the steps: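 Each compound was tested against a transplantable tumor grown in mice. The endpoint was survival, with treated animals benchmarked against vehicle controls as a simple ratio.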

The mark [1] stands for this setting: dose: 100.0 mg/kg/injection, schedule: Q01DX009 (ip), vehicle: Klucel (hydroxypropylcellulose) (HPC).
Where [2] appears, read: dose: 200.0 mg/kg/injection, schedule: Q01DX009 (ip), vehicle: Klucel (hydroxypropylcellulose) (HPC).
Where [3] appears, read: dose: 400.0 mg/kg/injection, schedule: Q01DX009 (ip), vehicle: Klucel (hydroxypropylcellulose) (HPC).
[4] abbreviates: dose: 400.0 mg/kg/injection, schedule: Q01DX001 (ip), vehicle: other.

Several values for one entry are separate records, joined by “and”; a condition that tells them apart may be missing. Identical values can stand only once. Inconclusive results and toxic doses are left out. Square brackets hold non-standard residues; d marks the D form. Peptide text beside a SMILES is read from it. * marks the point of attachment. ξ: configuration not given here. Tos = Cc1ccc(S(=O)(=O)*)cc1; ξY = NC(Cc1ccc(O)cc1)C(=O)O

For the molecule `Cc1ccc(S(=O)(=O)NCC(=O)NC(Cc2ccc(O)cc2)C(=O)O)cc1` (stereo not drawn) (Tos-Gly-[ξY]-OH), the T/C reads like this: (dose: 100.0 mg/kg/injection, schedule: Q01DX009 (ip), vehicle: other) 105 % of control; (dose: 200.0 mg/kg/injection, schedule: Q01DX009 (ip), vehicle: other) 102 % of control; (dose: 400.0 mg/kg/injection, schedule: Q01DX009 (ip), vehicle: other) 104 % of control.
On to `N#C[CH2][Sn]([c]1ccccc1)([c]1ccccc1)[c]1ccccc1`, for which the T/C was 100 % of control (dose: 12.5 mg/kg/injection, schedule: Q04DX002 (ip), vehicle: saline with Tween-80); 96 % of control (dose: 25.0 mg/kg/injection, schedule: Q04DX002 (ip), vehicle: saline with Tween-80); 93 % of control (dose: 50.0 mg/kg/injection, schedule: Q04DX002 (ip), vehicle: saline with Tween-80).
On to `COC(OC)c1nc(N)[nH]c(=O)c1Cc1ccc(Br)cc1`, for which the T/C is, setting by setting: (dose: 100.0 mg/kg/injection, schedule: Q01DX001 (ip), vehicle: Klucel (hydroxypropylcellulose) (HPC)) 105 % of control; (dose: 100.0 mg/kg/injection, schedule: Q01DX009 (ip), vehicle: saline with Tween-80) 93 % of control; (dose: 100.0 mg/kg/injection, schedule: Q04DX003 (ip), vehicle: saline with Tween-80) 106 % of control; (dose: 200.0 mg/kg/injection, schedule: Q01DX001 (ip), vehicle: Klucel (hydroxypropylcellulose) (HPC)) 108 % of control; (dose: 200.0 mg/kg/injection, schedule: Q01DX009 (ip), vehicle: saline with Tween-80) 102 % of control; (dose: 200.0 mg/kg/injection, schedule: Q04DX003 (ip), vehicle: saline with Tween-80) 97 % of control. Further, the T/C reads like this: (dose: 400.0 mg/kg/injection, schedule: Q01DX001 (ip), vehicle: Klucel (hydroxypropylcellulose) (HPC)) 108 % of control; (dose: 400.0 mg/kg/injection, schedule: Q01DX009 (ip), vehicle: saline with Tween-80) 96 % of control; (dose: 400.0 mg/kg/injection, schedule: Q04DX003 (ip), vehicle: saline with Tween-80) 97 % of control.
With `CC1CN1CCS(=O)(=O)CCN1CC1C` (stereo unspecified), the T/C (dose: 0.3 mg/kg/injection, schedule: Q01DX015 (ip), vehicle: carboxymethylcellulose (CMC)) is 95 % of control; the T/C (dose: 0.6 mg/kg/injection, schedule: Q01DX015 (ip), vehicle: carboxymethylcellulose (CMC)) is 101 % of control; the T/C (dose: 1.2 mg/kg/injection, schedule: Q01DX015 (ip), vehicle: carboxymethylcellulose (CMC)) is 109 % of control; the T/C (dose: 1.25 mg/kg/injection, schedule: Q01DX015 (ip), vehicle: carboxymethylcellulose (CMC)) was 101 % of control; the T/C (dose: 2.5 mg/kg/injection, schedule: Q01DX015 (ip), vehicle: carboxymethylcellulose (CMC)) is 103 % of control and 110 % of control; the T/C (dose: 3.1 mg/kg/injection, schedule: Q01DX015 (ip), vehicle: saline) was 102 % of control. Also, the T/C reads like this: (dose: 4.6 mg/kg/injection, schedule: Q01DX015 (ip), vehicle: saline) 102 % of control; (dose: 5.0 mg/kg/injection, schedule: Q01DX015 (ip), vehicle: carboxymethylcellulose (CMC)) 101 % of control; (dose: 7.0 mg/kg/injection, schedule: Q01DX015 (ip), vehicle: saline) 94 % of control; (dose: 10.0 mg/kg/injection, schedule: Q01DX015 (ip), vehicle: carboxymethylcellulose (CMC)) 100 % of control and 112 % of control; (dose: 10.0 mg/kg/injection, schedule: Q01DX015 (ip), vehicle: saline) 100 % of control; (dose: 20.0 mg/kg/injection, schedule: Q01DX015 (ip), vehicle: carboxymethylcellulose (CMC)) 108 % of control. Further, the T/C (dose: 40.0 mg/kg/injection, schedule: Q01DX015 (ip), vehicle: carboxymethylcellulose (CMC)) is 114 % of control.
Take `CSc1ccc(NC(=O)N(CCCl)N=O)cc1`: the T/C (dose: 0.7 mg/kg/injection, schedule: Q01DX001 (ip), vehicle: carboxymethylcellulose (CMC)) is 109 % of control; the T/C (dose: 1.5 mg/kg/injection, schedule: Q01DX001 (ip), vehicle: carboxymethylcellulose (CMC)) was 112 % of control; the T/C (dose: 2.0 mg/kg/injection, schedule: Q01DX009 (ip), vehicle: other) was 171 % of control; the T/C (dose: 2.6 mg/kg/injection, schedule: Q01DX009 (ip), vehicle: carboxymethylcellulose (CMC)) is 113 % of control; the T/C (dose: 4.0 mg/kg/injection, schedule: Q01DX009 (ip), vehicle: carboxymethylcellulose (CMC)) is 119 % of control; the T/C (dose: 4.0 mg/kg/injection, schedule: Q01DX009 (ip), vehicle: other) was 180 % of control. Moreover, the T/C was 208 % of control (dose: 8.0 mg/kg/injection, schedule: Q01DX001 (ip), vehicle: other); 170 % of control (dose: 8.0 mg/kg/injection, schedule: Q01DX009 (ip), vehicle: other); 175 % of control (dose: 8.3 mg/kg/injection, schedule: Q01DX001 (ip), vehicle: carboxymethylcellulose (CMC)); 156 % of control (dose: 9.0 mg/kg/injection, schedule: Q01DX009 (ip), vehicle: carboxymethylcellulose (CMC)); 194 % of control (dose: 12.0 mg/kg/injection, schedule: Q01DX001 (ip), vehicle: other); 187 % of control (dose: 12.5 mg/kg/injection, schedule: Q01DX001 (ip), vehicle: carboxymethylcellulose (CMC)). The T/C is, setting by setting: (dose: 18.0 mg/kg/injection, schedule: Q01DX001 (ip), vehicle: other) 101 % of control; (dose: 18.7 mg/kg/injection, schedule: Q01DX001 (ip), vehicle: carboxymethylcellulose (CMC)) 211 % of control; (dose: 25.0 mg/kg/injection, schedule: Q01DX001 (ip), vehicle: carboxymethylcellulose (CMC)) 94 % of control.
Turning to `CN(C)c1ccc(C=Nc2ccc(S(N)(=O)=O)cc2)cc1`, the T/C by setting is: under setting [1], 100 % of control; under setting [2], 93 % of control; under setting [3], 98 % of control.
Regarding `C(C#Cc1ccccc1)#Cc1ccccc1`, the T/C runs as follows: (dose: 100.0 mg/kg/injection, schedule: Q04DX003 (ip), vehicle: saline) 94 % of control; (dose: 200.0 mg/kg/injection, schedule: Q04DX003 (ip), vehicle: saline) 100 % of control; (dose: 400.0 mg/kg/injection, schedule: Q04DX003 (ip), vehicle: saline) 97 % of control.
Take `c1cc(OCC2CO2)ccc1OCC1CO1` (stereo unspecified): the T/C by setting is: (dose: 100.0 mg/kg/injection, schedule: Q01DX001 (ip), vehicle: other) 115 % of control; (dose: 200.0 mg/kg/injection, schedule: Q01DX001 (ip), vehicle: other) 124 % of control; under setting [4], 121 % of control.
As to `CC(=O)C(=O)O`, the T/C is 110 % of control (dose: 100.0 mg/kg/injection, schedule: Q01DX001 (ip), vehicle: saline); 95 % of control (dose: 200.0 mg/kg/injection, schedule: Q01DX001 (ip), vehicle: saline); 87 % of control (dose: 400.0 mg/kg/injection, schedule: Q01DX001 (ip), vehicle: saline).
With `CCCC(OP(=S)(OCC(Cl)CC)OCC(Cl)CC)P(=O)(OCC(Cl)CC)OCC(Cl)CC` (stereo unspecified), the T/C was 106 % of control (dose: 100.0 mg/kg/injection, schedule: Q04DX002 (ip), vehicle: saline); 106 % of control (dose: 200.0 mg/kg/injection, schedule: Q04DX002 (ip), vehicle: saline); 106 % of control (dose: 400.0 mg/kg/injection, schedule: Q04DX002 (ip), vehicle: saline).
In the case of `CCC[N+](C)(C)C1CCCCC1`, the T/C (dose: 75.0 mg/kg/injection, schedule: Q01DX001 (ip), vehicle: saline) was 96 % of control and 94 % of control.
As for `O=[N+]([O-])c1ccc(S(=O)NOCc2ccccc2)cc1` (stereo unspecified), the T/C under setting [1] was 96 % of control, the T/C under setting [2] was 94 % of control and the T/C under setting [3] is 91 % of control.
Take `CCCc1nnn(S(=O)(=O)c2ccc([N+](=O)[O-])cc2)c1CCC`: the T/C runs as follows: (dose: 177.0 mg/kg/injection, schedule: Q01DX001 (ip), vehicle: other) 88 % of control; (dose: 266.0 mg/kg/injection, schedule: Q01DX001 (ip), vehicle: other) 91 % of control; under setting [4], 96 % of control; (dose: 600.0 mg/kg/injection, schedule: Q01DX001 (ip), vehicle: other) 88 % of control.
Regarding `O=C(CN1CCCCC1)c1ccc(/C=C/c2ccc(Cl)cc2)cc1`, the T/C is, setting by setting: (dose: 12.5 mg/kg/injection, schedule: Q01DX009 (ip), vehicle: Klucel (hydroxypropylcellulose) (HPC)) 93 % of control; (dose: 25.0 mg/kg/injection, schedule: Q01DX009 (ip), vehicle: Klucel (hydroxypropylcellulose) (HPC)) 97 % of control; (dose: 50.0 mg/kg/injection, schedule: Q01DX009 (ip), vehicle: Klucel (hydroxypropylcellulose) (HPC)) 87 % of control and 88 % of control; (dose: 100.0 mg/kg/injection, schedule: Q04DX003 (ip), vehicle: Klucel (hydroxypropylcellulose) (HPC)) 88 % of control; (dose: 200.0 mg/kg/injection, schedule: Q04DX003 (ip), vehicle: Klucel (hydroxypropylcellulose) (HPC)) 88 % of control.
